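All cell lines were grown in 96-well plates and treated with compound for 48 hours. At the GI50, growth is halved.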 Active and inactive are the calls of the source. No stated cut-off is given here; in the data, active = GI50 up to about 1.1 µM and inactive = higher.
Tests used:
Test in all cases: NCI-60 cell line screen, 48 h
[1] = tested on: SF-268
[2] = tested on: OVCAR-3
[3] = tested on: SN12C
[4] = tested on: NCI-H23
[5] = tested on: K562
[6] = tested on: SK-MEL-2
[7] = tested on: OVCAR-5
[8] = tested on: HCT-116
[9] = tested on: UACC-62
[10] = tested on: SNB-19
[11] = tested on: Hs-578T
[12] = tested on: MDA-MB-435
[13] = tested on: PC-3
[14] = tested on: SR
[15] = tested on: EKVX
[16] = tested on: OVCAR-8
[17] = tested on: SK-OV-3
[18] = tested on: HOP-92
[19] = tested on: SK-MEL-28
[20] = tested on: SW-620

| SMILES | GI50 [1] | GI50 [2] | GI50 [3] | GI50 [4] | GI50 [5] | GI50 [6] | GI50 [7] | GI50 [8] | GI50 [9] | GI50 [10] | GI50 [11] | GI50 [12] | GI50 [13] | GI50 [14] | GI50 [15] | GI50 [16] | GI50 [17] | GI50 [18] | GI50 [19] | GI50 [20] |
| --- | --- | --- | --- | --- | --- | --- | --- | --- | --- | --- | --- | --- | --- | --- | --- | --- | --- | --- | --- | --- |
| CC(=O)N1C(=O)/C(=C\C(=O)c2ccc([N+](=O)[O-])cc2)c2ccccc21 | 22.6 µM (inactive) | 16.7 µM (inactive) | 16.8 µM (inactive) | 28.9 µM (inactive) | 9.18 µM (inactive) | > 100 µM (inactive) | 54.2 µM (inactive) | 18 µM (inactive) | 18.4 µM (inactive) | 43.2 µM (inactive) | 22.2 µM (inactive) | 25.6 µM (inactive) | 21.8 µM (inactive) | 3.61 µM (inactive) | 19.6 µM (inactive) | 47.5 µM (inactive) | > 100 µM (inactive) |  |  |  |
| NCC1CCN(c2nc3ccccc3c3c2CCCC3)CC1 | 2.78 µM (inactive) | 9.75 µM (inactive) | 9.55 µM (inactive) | 15.5 µM (inactive) | 2.54 µM (inactive) | 5.73 µM (inactive) | 11.9 µM (inactive) | 3.07 µM (inactive) | 2.29 µM (inactive) | 10.4 µM (inactive) | 20.1 µM (inactive) | 2.41 µM (inactive) | 8.93 µM (inactive) |  | 11.8 µM (inactive) | 17.2 µM (inactive) | 14.7 µM (inactive) | 9.04 µM (inactive) | 5.15 µM (inactive) | 2.86 µM (inactive) |
| CCCC(=O)NC1=C(NCC)C(=O)c2ccccc2C1=O | > 100 µM (inactive) | 34.2 µM (inactive) | > 100 µM (inactive) | > 100 µM (inactive) | 50.8 µM (inactive) |  | > 100 µM (inactive) | 43.7 µM (inactive) | > 100 µM (inactive) | > 100 µM (inactive) | > 100 µM (inactive) | 25.2 µM (inactive) | 40.9 µM (inactive) | 60.5 µM (inactive) |  |  | > 100 µM (inactive) | > 100 µM (inactive) | 95.7 µM (inactive) | 33.4 µM (inactive) |
| O=C1NC(Nc2ccccc2)=NC(C(F)(F)F)(C(F)(F)F)N1 | 39.8 µM (inactive) | 37.9 µM (inactive) | 36.6 µM (inactive) | 23.4 µM (inactive) | 49.3 µM (inactive) | 19.9 µM (inactive) | 42.8 µM (inactive) | 34.6 µM (inactive) | 50.4 µM (inactive) |  | 55.3 µM (inactive) | 43 µM (inactive) | 20.5 µM (inactive) | 40.1 µM (inactive) | 38.4 µM (inactive) | 40.2 µM (inactive) | 64 µM (inactive) | 20.7 µM (inactive) | 47.2 µM (inactive) | 71.8 µM (inactive) |
| O=C(O)CC(NC(=O)Nc1ccc([N+](=O)[O-])cc1)C(=O)Nc1ccc([N+](=O)[O-])cc1 (stereo not given) | 9.44 µM (inactive) | > 100 µM (inactive) |  | > 100 µM (inactive) | > 100 µM (inactive) | > 100 µM (inactive) | > 100 µM (inactive) | > 100 µM (inactive) | 0.69 µM (active) | > 100 µM (inactive) | 50.2 µM (inactive) | > 100 µM (inactive) | > 100 µM (inactive) |  | > 100 µM (inactive) | > 100 µM (inactive) | > 100 µM (inactive) |  | > 100 µM (inactive) | > 100 µM (inactive) |
| O=[N+]([O-])c1cc(-c2ccc([As](=O)(O)O)cc2)ccc1[As](=O)(O)O | > 100 µM (inactive) | > 100 µM (inactive) | > 100 µM (inactive) | > 100 µM (inactive) | > 100 µM (inactive) | > 100 µM (inactive) | > 100 µM (inactive) | > 100 µM (inactive) | > 100 µM (inactive) | > 100 µM (inactive) | > 100 µM (inactive) | > 100 µM (inactive) | > 100 µM (inactive) | > 100 µM (inactive) | > 100 µM (inactive) | > 100 µM (inactive) |  | > 100 µM (inactive) | > 100 µM (inactive) | > 100 µM (inactive) |
| COc1cc(OC)c2c(=O)c(OC)c(-c3ccc4c(c3)OCO4)oc2c1 | 20.7 µM (inactive) | > 100 µM (inactive) | 59.7 µM (inactive) | 23.2 µM (inactive) | > 100 µM (inactive) | 19.1 µM (inactive) | > 100 µM (inactive) | 44.4 µM (inactive) | 26 µM (inactive) | 22 µM (inactive) | 35.1 µM (inactive) | > 100 µM (inactive) | 84.7 µM (inactive) |  | 41.7 µM (inactive) | 28.6 µM (inactive) | 22.8 µM (inactive) |  | > 100 µM (inactive) | > 100 µM (inactive) |
| O=C(O)c1ccc(Nc2nc3cc(C(F)(F)F)ccc3nc2C(=O)O)cc1 | 93.3 µM (inactive) | > 100 µM (inactive) | > 100 µM (inactive) | > 100 µM (inactive) | > 100 µM (inactive) | > 100 µM (inactive) | > 100 µM (inactive) | > 100 µM (inactive) |  | > 100 µM (inactive) | > 100 µM (inactive) | > 100 µM (inactive) | > 100 µM (inactive) | > 100 µM (inactive) | > 100 µM (inactive) | > 100 µM (inactive) |  |  | > 100 µM (inactive) | > 100 µM (inactive) |
| COC(=O)Cc1cccc2c1CCC2=O | > 100 µM (inactive) | > 100 µM (inactive) | > 100 µM (inactive) | > 100 µM (inactive) | > 100 µM (inactive) |  | > 100 µM (inactive) | > 100 µM (inactive) | > 100 µM (inactive) | > 100 µM (inactive) | > 100 µM (inactive) | > 100 µM (inactive) | > 100 µM (inactive) | > 100 µM (inactive) | > 100 µM (inactive) | > 100 µM (inactive) | > 100 µM (inactive) | > 100 µM (inactive) | > 100 µM (inactive) | > 100 µM (inactive) |
| NC(CNO)C(=O)O (stereo not given) | > 100 µM (inactive) | > 100 µM (inactive) | > 100 µM (inactive) | > 100 µM (inactive) |  | > 100 µM (inactive) | > 100 µM (inactive) | > 100 µM (inactive) | > 100 µM (inactive) | > 100 µM (inactive) | > 100 µM (inactive) | > 100 µM (inactive) | > 100 µM (inactive) |  | > 100 µM (inactive) | > 100 µM (inactive) | > 100 µM (inactive) | > 100 µM (inactive) | > 100 µM (inactive) | > 100 µM (inactive) |
| Cc1ccc(C(=O)/C=C2\Nc3ccccc3S\C2=N\CS(=O)(=O)c2ccc(C)cc2)cc1 | > 10 µM (inactive) | 4.33 µM (inactive) | > 10 µM (inactive) | > 10 µM (inactive) | > 10 µM (inactive) |  | > 10 µM (inactive) | > 10 µM (inactive) | > 10 µM (inactive) | > 10 µM (inactive) | 8.43 µM (inactive) | > 10 µM (inactive) | > 10 µM (inactive) | > 10 µM (inactive) |  | > 10 µM (inactive) | 6.89 µM (inactive) | > 10 µM (inactive) | > 10 µM (inactive) | > 10 µM (inactive) |
| O=C1C=CC(=O)c2c(NCC3CC3)ccc(NCC3CC3)c21 |  | 26.7 µM (inactive) | 23.2 µM (inactive) | 26.4 µM (inactive) | 22.5 µM (inactive) | 50.4 µM (inactive) | 59 µM (inactive) | 37.8 µM (inactive) | 18.3 µM (inactive) | > 100 µM (inactive) | 82.8 µM (inactive) | 19.7 µM (inactive) | 46.2 µM (inactive) | 21.9 µM (inactive) | 29 µM (inactive) | 56.2 µM (inactive) |  |  | 28.6 µM (inactive) | 34.5 µM (inactive) |
| CN(c1cn(C2CC[C@@H](CO)O2)c(=O)[nH]c1=O)C1CCCCC1 (stereo not given in full) | > 100 µM (inactive) | > 100 µM (inactive) | > 100 µM (inactive) | > 100 µM (inactive) | > 100 µM (inactive) |  | > 100 µM (inactive) | > 100 µM (inactive) | > 100 µM (inactive) | > 100 µM (inactive) | 30 µM (inactive) | > 100 µM (inactive) | > 100 µM (inactive) | > 100 µM (inactive) |  | > 100 µM (inactive) | > 100 µM (inactive) | > 100 µM (inactive) | > 100 µM (inactive) | > 100 µM (inactive) |
| COC(=O)C1(Cc2ccccc2)Cc2c(C)ccc(C)c2C1=O (stereo not given) | 39.6 µM (inactive) | 29.2 µM (inactive) | 47.8 µM (inactive) | 24.2 µM (inactive) | 30.5 µM (inactive) |  | 69.5 µM (inactive) | 19.8 µM (inactive) | 11.5 µM (inactive) | 48.4 µM (inactive) | 5.64 µM (inactive) | 17.4 µM (inactive) | 26.3 µM (inactive) | 23.9 µM (inactive) | 4.69 µM (inactive) | 14.4 µM (inactive) | 35.3 µM (inactive) | 20.1 µM (inactive) | 42.5 µM (inactive) | 40.6 µM (inactive) |
| CCOC(=O)c1cn(CC)c2ccc3ccsc3c2c1=O | > 100 µM (inactive) | > 100 µM (inactive) |  | > 100 µM (inactive) | > 100 µM (inactive) | 75.2 µM (inactive) | > 100 µM (inactive) | > 100 µM (inactive) | > 100 µM (inactive) | > 100 µM (inactive) | > 100 µM (inactive) | > 100 µM (inactive) | > 100 µM (inactive) |  | > 100 µM (inactive) | > 100 µM (inactive) | > 100 µM (inactive) | > 100 µM (inactive) | > 100 µM (inactive) | > 100 µM (inactive) |

— ChEMBL document CHEMBL1201862, “PubChem BioAssay data set” (2004)
